{"source": "patent US20040127575A1", "about": "“Method for counteracting a pathologic change in the beta-adrenergic pathway” (priority 2002, published 2004)", "molecules": {"B1": {"name": "activin A: Activin A obtained from R&D System (protein, UniProt P08476 311-426, looked up)", "Inhibin beta A chain": "GLECDGKVNICCKKQFFVSFKDIGWNDWIIAPSGYHANYCEGECPSHIAGTSGSSLSFHSTVINHYRMRGHSPFANLKSCCVPTKLRPMSMLYYDDGQNIIKKDIQNMIVEECGCS"}, "B2": {"name": "IL-1β: IL-1β, cytokine applied to rat cardiomyocytes (protein, UniProt Q63264 117-268, looked up)", "Interleukin-1 beta": "VPIRQLHCRLRDEQQKCLVLSDPCELKALHLNGQNISQQVVFSMSFVQGETSNDKIPVALGLKGLNLYLSCVMKDGTPTLQLESVDPKQYPKKKMEKRFVFNKIEVKTKVEFESAQFPNWYISTSQAEHRPVFLGNSNGRDIVDFTMEPVSS"}}, "key": {"[1]": {"tested_on": "rat neonatal cardiomyocytes", "test": "cyclic AMP accumulation in rat neonatal cardiomyocytes (EIA)", "conditions": "for attenuation of isoproterenol-stimulated cAMP accumulation: 1 μM isoproterenol, 200 nM antagonist; for β2AR response/AC activity (procaterol, forskolin): FIG. 11", "quoted_text": "Ventricular cardiomyocytes were isolated from neonatal rat hearts as described before and seeded to fibronectin coated plates in DMEM21 and Coon's F12 with 10% FBS. […] Myocytes were used within 24 to 72 hr after isolation.\nFor pretreatment, cells were washed once in serum-free media (SFM) supplemented with 0.1% bovine serum albumin (BSA) and incubated with TGF-β1 in the presence or absence of inhibitors in the same media. Control cells were treated with the appropriate vehicles.\nHBSMC or rat neonatal cardiomyocytes were subcultured in 96-well or 24-well plates for 24 hr to 48 hr, then treated with TGFβ1 (1-2ng/ml), Activin A (10-50 ng/ml) and other drugs in 1% serum-containing or serum-free media. After 24 hr incubation, phosphodiesterase inhibitor, IBMX (200 uM) was added to fresh media for 10-15 min before exposure to either 10 uM procaterol, 1 uM isoproterenol, or 10-50 uM forskolin for 10 min to stimulate cAMP production. The stimulation medium was removed and cells were lysed in 0.1M HCl. cAMP levels were measured using Direct cAMP EIA kit from Assay Designs, Inc. following manufacture's instruction.\nSubsequent to treatment with TGF-β1 (1-2 ng/ml), cardiomyocytes (˜1×10^5 cells/well in 24-well plates) were incubated with phosphodiesterase inhibitor, IBMX (200 μM) for 30 min in SFM. Cells were then exposed to either procaterol (10 μM), forskolin (10-50 μM), or isoproterenol (Iso, 1 μM) for 10 min to allow for accumulation of cAMP. […] The incubations were terminated by removal of the medium. Cells in each well were lysed in 150 μl of 0.1 M HCl at room temperature (RT) for 30 min. Intracellular cAMP contents were measured using the Direct cAMP EIA kit following manufacture's instruction, and the cAMP levels were calculated in pmol/ml."}, "β2AR mRNA": {"tested_on": "β2AR mRNA", "test": "real-time quantitative PCR of β2AR mRNA in hBSMC", "format": "cell-based, human", "conditions": "TGFβ1 exposure", "description": "Expression levels were normalized to 18S rRNA."}, "[2]": {"tested_on": "human bronchial smooth muscle cells (hBSMC)", "test": "cyclic AMP accumulation in hBSMC (EIA)", "format": "cell-based", "protocol": "Human bronchial smooth muscle cells (hBSMC) were purchased from Clonetics (BioWhittaker, Inc., Walkersville, Md.), and maintained in SmGM-2 containing 5% fetal bovine serum (Clonetics) at 37° C./5% CO2. All experiments were performed on cells at passages from 6 to 8. For pretreatment, cells were incubated in 1% serum-containing media or serum-free media in the presence or absence of TGFβ1, Activin A and other drugs. Control cells were treated with the appropriate vehicles."}, "[3]": {"tested_on": "β2-adrenergic receptors on cell surface", "test": "radioligand binding with [3H]CGP-12177 on intact hBSMC", "format": "cell-based, human", "conditions": "TGFβ1 exposure", "protocol": "The number of β2-adrenergic receptors on cell surface was determined by radioligand binding using hydrophilic, membrane-impermeable β-adrenergic antagonist [^3H]CGP-12177. Intact hBSMCs in 10 cm dish were preincubated with 5 nM [^3H]-CGP 12177 in the presence or absence of 20 uM propranolol (to define the amount of nonspecific binding) in SmBM for 1 hour at 37° C. with very gentle shaking. Cells were washed 3 times with ice-cold 1×PBS containing 0.1% Tween-20 (binding buffer) and 3 more times with ice-cold 1×PBS. 400 μl of RIPA buffer containing protease inhibitors was added to the plates and cells were scraped off the plates. Cell lysates were collected and protein concentrations were determined by BCA method (PIERCE). The radioligand bound to the whole cell was quantified by liquid scintillation counter and normalized to the protein concentration."}, "Smad2": {"tested_on": "Smad2", "test": "Western blot of Smad2 phosphorylation in cardiomyocytes", "quoted_text": "(§1) After incubation with TGFβ1 and other drugs, cells were washed once with 1×PBS and lysed in 0.2 ml/plate cold RIPA buffer (phosphate buffered saline, pH 7.4, 1% NP-40, 0.5% sodium deoxycholate, 0.1% sodium dodecylsulfate, 1 mM sodium orthovanadate, 1 mM NaF, 1 mM β-glycerolphosphate, 1 uM okadaic acid, 10 ng/ml aprotinin, 10 ng/ml leupeptin, 1 mM phenymethylsulfonyl fluoride). Samples were clarified by centrifugation (4° C., 10 min, 15,000×g), and protein concentration was determined by BCA method (PIRCE). Lysates with equal amounts of total cell protein (15-20 ug) were separated on 10% SDS-NuPAGE (Invitrogen) and then transferred to nitrocellulose membrane. The membrane was blocked in 3% nonfat dry milk/TBST (10 mM Tris-HCl pH 7.5, 150 mM NaCl, 0.1% Tween 20) for 1 hr, and probed with anti-Smad2/3 mouse monoclonal antibody [Transduction Laboratories (S66220); 1:500 dilution in 3% milk/TBST], or anti-phospho-Smad2 (Ser465/467) rabbit antiserum [Cell Signaling (3101S); 1:500 dilution in 3% BSA/TBST] at 4° C. overnight. Donkey anti-mouse HRP [Santa Cruz (SC-2314); 1:2000 dilution] or donkey anti-rabbit HRP [Santa Cruz (SC-23130; 1:2000 dilution] were used as secondary antibody. Immunoreactivity was detected with chemiluminescence reagent (Santa Cruz) and visualized by exposing to x-ray film (Kodak).\nThe binding of primary antibodies was followed by incubation for 1 hour at RT with the secondary horseradish peroxidase (HRP) conjugated goat anti-mouse or goat anti-rabbit antibody (Santa Cruz Biotechnology). Immunoreactivity was detected with chemiluminescence reagents and visualized by exposing to x-ray film (Kodak)."}, "[4]": {"tested_on": "rat neonatal cardiomyocytes", "test": "real-time RT-PCR of mRNA levels in cardiomyocytes", "conditions": "for β2-AR mRNA levels in cardiomyocytes: 24 hr pretreatment for TGF-β1", "excerpt": "Total RNA was extracted from cells using Qiagen's RNAeasy kit (Valencia, Calif.), and analyzed by quantitative real time RT-PCR [Gibson UEM, Heid C A and Williams P M. Genome Res. 6, 995-1001, 1996] using an ABI Prism™ 7700 Sequence Detection System (PE Applied Biosystems, Foster City, Calif.). This system is based on the ability of the 5′nuclease activity of Taq polymerase to cleave a nonextendable dual-labeled fluorogenic hybridization probe during the extension phase of PCR. The probe is labeled with reporter fluorescent dye at the 5′ end and a quencher fluorescent dye (6-carboxy-tetramethyl-rhodamine) at the 3′ end. When the probe is intact, reporter emission is quenched by the physical proximity of the reporter and quencher fluorescent dyes. However, during the extension phase of PCR, the nucleolytic activity of the DNA polymerase cleaves the hybridization probe and releases the reporter dye from the probe with a concomitant increase in reporter fluorescence.\nSequence specific primers and probes were designed using Primer Express software (PE Applied Biosystems, Foster City, Calif.). […] Primers were used at a concentration of 200 nM and probes at 100 nM in each reaction. Multiscribe reverse transcriptase and AmpliTaq Gold polymerase (PE Applied Biosystems, Foster City Calif.) were used in all RT-PCR reactions and PCR reactions. RT-PCR parameters were as follows: 48° C. for 30 min (reverse transcription), 95° C. for 10 min (AmpliTaq Gold activation) and 40 cycles of 95° C. for 15 sec, 60° C. for 1 min. Relative quantitation of β1-AR, β2-AR, and 18S mRNA were calculated using the comparative threshold cycle number for each sample fitted to a five point standard curve (ABI Prism 7700 User Bulletin #2, PE Applied Biosystems, Foster City Calif.). Expression levels were normalized to 18S rRNA."}, "Smad2/3 and Smad4": {"tested_on": "Smad2/3 and Smad4", "test": "immunofluorescence staining of Smad nuclear translocation in cardiomyocytes", "quoted_text": "The nuclear translocation of Smad proteins in response to TGF-β1 was determined by immunofluorescence staining with monoclonal anti-Smad2/3 antibody (BD Transduction Labarotories) and anti-Smad4 antibody (sc-7966) (Santa Cruz Biotechnology). Briefly, myocytes cultured on Lab-Tek chamber slides (Nalge Nunc International, Naperville, Ill.) coated with fibronectin and gelatin were fixed with 4% paraformaldehyde in PBS for 5 min, then penetrated with 0.1% saponin/1% normal goat serum (NGS) in PBS for 15 min. After blocking nonspecific binding with 5% NGS/0.05% saponin in PBS for 15 min, the slides were incubated with primary antibody in 1% NGS in PBS at 4° C. overnight. After another washing and blocking, slides were incubated with a biotinylated anti-mouse antibody for 30 min, followed by fluorescein isothiocyanate (FITC)-conjugated-avidin (Vector, Burlingame, Calif.) for 30 min. Slides were dried and mounted in Vectashield (Vector). Samples were analyzed by fluorescence microscopy."}, "Smad2, Smad3": {"tested_on": "Smad2, Smad3", "test": "Western blot of phospho-Smad2 and Smad3 in hBSMC", "format": "cell-based, human", "quoted_text": "as §1"}, "[5]": {"tested_on": "β2-AR receptor binding sites", "test": "radioligand binding in cardiomyocytes", "format": "cell-based, rat", "protocol": "The radioligand binding assay was performed as described in Example 1. To define the nonspecific binding to β2-AR, 50 nM CGP-20712A were used.\nMembranes were then prepared and binding of 100 pm [^125]-CYP was measured for 2 hours at 23° C. using 8 μg membrane protein, and expressed as fmol/mg protein. Binding in the presence of 100 nM CGP-20712A was defined as binding to β2-AR, while binding in the presence of 100 μM propranolol was defined as non-specific binding. Subtraction of β2-AR binding from total binding was defined as β1-AR binding. The results are shown in FIG. 25 (p<0.05 vs. vehicle)."}, "TGF-β mediated fibrosis": {"tested_on": "TGF-β mediated fibrosis", "test": "TGF-β mediated fibrosis in in vitro and in vivo models", "conditions": "several in vitro and in vivo models"}, "[6]": {"tested_on": "panel of related protein kinases", "test": "panel of related protein kinases", "conditions": "relative to TGFβ-RI kinase"}, "TGFβ-RII receptor": {"biological_target": "TGFβ-RII receptor (Homo sapiens, UniProt P37173)", "sequence (P37173 23-567)": "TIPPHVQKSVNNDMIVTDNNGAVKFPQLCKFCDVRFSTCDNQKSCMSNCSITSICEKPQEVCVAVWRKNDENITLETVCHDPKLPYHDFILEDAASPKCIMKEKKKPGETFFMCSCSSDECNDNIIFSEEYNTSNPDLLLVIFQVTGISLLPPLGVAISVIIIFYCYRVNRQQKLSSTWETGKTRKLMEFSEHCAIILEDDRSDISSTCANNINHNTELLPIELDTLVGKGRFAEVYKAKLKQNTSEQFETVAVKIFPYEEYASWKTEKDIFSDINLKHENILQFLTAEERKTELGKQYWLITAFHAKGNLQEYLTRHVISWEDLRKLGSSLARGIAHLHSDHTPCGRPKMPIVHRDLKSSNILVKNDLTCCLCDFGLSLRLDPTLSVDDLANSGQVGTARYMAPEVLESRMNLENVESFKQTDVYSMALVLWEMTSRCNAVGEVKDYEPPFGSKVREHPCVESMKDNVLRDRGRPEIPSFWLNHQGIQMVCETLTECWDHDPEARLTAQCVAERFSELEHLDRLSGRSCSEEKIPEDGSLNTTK", "test": "specificity against TGFβ-RII receptor", "conditions": "relative to TGFβ-RI kinase"}}, "note": "Where “and” joins values, the source holds several entries; their conditions need not be identical. Identical values can stand only once. Entries after “also recorded” stand apart in the source; their conditions may differ.", "data": [{"molecule": "CCC(NC(C)C)C(O)c1ccc(O)c2[nH]c(=O)ccc12", "note": "(centres unmarked) [procaterol, reference compound]", "values": [{"measurement": "cAMP accumulation by agonist", "setting": "[1]; 10 μM procaterol", "result": "substantially increased"}]}, {"molecule": "TGF-β1: Human recombinant transforming growth factor-β1 from R&D System", "values": [{"measurement": "β2AR mRNA in hBSMC", "setting": "β2AR mRNA", "result": "significantly reduces"}, {"measurement": "time course of loss of β2AR response (procaterol-induced cAMP) in hBSMC", "setting": "[2]; more profound at 24 hr or later", "result": "after 12 hr"}, {"measurement": "time course of effect on AC activity (forskolin-induced cAMP) in hBSMC", "setting": "[2]; to a lesser extent", "result": "only observed 24 hr later"}, {"measurement": "βAR binding sites on hBSMC", "setting": "[3]", "result": "reduces"}, {"measurement": "time of peak serine phosphorylation of Smad2", "setting": "Smad2; maintained for 24 hr", "result": 1, "unit": "h"}, {"measurement": "Smad7 mRNA in cardiomyocytes", "setting": "[4]", "result": "up-regulated"}, {"measurement": "β1-AR mRNA levels in cardiomyocytes", "setting": "[4]", "result": "did not significantly alter"}, {"measurement": "β2-AR mRNA levels in cardiomyocytes", "setting": "[4]", "result": "decreased β2-AR mRNA levels dramatically"}, {"measurement": "earliest time of suppression of β2-AR mRNA", "setting": "[4]; after treatment", "result": 1, "unit": "h"}, {"measurement": "expression of βARK1, Gsα, Giα-1, Giα-3", "setting": "[4]; message or protein levels", "result": "did not alter"}, {"measurement": "mRNA levels of AC5 and AC6", "setting": "[4]; time-dependent", "result": "significant reduction"}, {"measurement": "Smad3 mRNA in cardiomyocytes", "setting": "[4]; within 24 hr", "result": "down-regulated"}, {"measurement": "reduction in procaterol-stimulated cAMP accumulation", "setting": "[1]; TGF-β1 1 ng/ml pre-treatment 24 hr, 10 μM procaterol, maximal effect", "result": "59±5.2% and ~60%"}, {"measurement": "cAMP accumulation stimulated by forskolin", "setting": "[1]; TGF-β1 exposure, 25 μM forskolin", "result": "decreased"}, {"measurement": "decrease of cAMP accumulation when β2-ARs selectively stimulated by isoproterenol in the presence of CGP-20712A", "setting": "[1]; TGF-β1 pretreatment 24 hr", "result": "~65", "unit": "%"}, {"measurement": "reduction in β1-AR mediated cAMP accumulation (isoproterenol in the presence of ICI 118, 551)", "setting": "[1]; TGF-β1 pretreatment 24 hr", "result": "16.5±3.1", "unit": "%"}, {"measurement": "Smad2/3 and Smad4 fluorescence staining in the nucleus", "setting": "Smad2/3 and Smad4; stimulation for 1 hr", "result": "dramatically increased"}, {"measurement": "Smad2 phosphorylation in hBSMC", "setting": "Smad2, Smad3", "result": "induces"}, {"measurement": "Smad3 expression in hBSMC", "setting": "Smad2, Smad3", "result": "down-regulated"}, {"measurement": "β2-AR receptor binding sites in cardiomyocytes", "setting": "[5]", "result": "trend to decrease"}]}, {"molecule": "Cc1ccc(OCC(O)C(C)NC(C)C)c2c1CCC2", "note": "(centres unmarked) [ICI 118, 551, reference compound]", "values": [{"measurement": "attenuation of isoproterenol-stimulated cAMP accumulation", "setting": "[1]", "result": "~25", "unit": "%"}]}, {"molecule": "Fc1ccc(Cl)cc1-c1nc(Nc2ccncc2)c2nccnc2n1", "note": "[Compound No. 79]", "values": [{"measurement": "effect on TGFβ1-induced loss of adrenergic responsiveness in hBSMC", "setting": "[2]; FIG. 4", "result": "prevents"}, {"measurement": "effect on TGF-β mediated fibrosis", "setting": "TGF-β mediated fibrosis", "result": "able to block"}, {"measurement": "effect on TGF-β1 induced Smad2 phosphorylation/activation", "setting": "Smad2; pre-incubation, Compound No. 79 at 400 nM, 1 hr and 24 hr", "result": "significantly blocked"}, {"measurement": "basal phosphorylation of Smad2", "setting": "Smad2; resting cardiomyocytes", "result": "blocked"}, {"measurement": "specificity over members of a panel of related protein kinases", "setting": "[6]", "result": "at least 20 fold"}, {"measurement": "specificity against TGFβ-RII receptor", "setting": "TGFβ-RII receptor", "result": "> 100", "unit": "fold"}, {"measurement": "effect on TGF-β1 induced down-regulation of β2-AR mRNA", "setting": "[4]; 5 ng/ml TGF-β1, 24 hr, dose-dependent", "result": "reversed"}, {"measurement": "effect on activin-induced down-regulation of β2AR mRNA", "setting": "[4]; FIG. 10", "result": "prevented"}, {"measurement": "effect on decreased AC5 and AC6 mRNA levels in TGF-β1 treated cardiomyocytes", "setting": "[4]; dose-dependent", "result": "inhibited"}, {"measurement": "effect on TGF-β1 induced down-regulation of Smad3 mRNA", "setting": "[4]; dose-dependent, within 24 hr", "result": "blocked"}, {"measurement": "mRNA levels of β2-AR in TGFβ1 treated cells", "setting": "[4]; high doses (400-1000 nM)", "result": "higher than that in control cells"}, {"measurement": "effect on TGFβ1-induced loss of β2AR response and AC activity", "setting": "[1]; Example 1, FIG. 9", "result": "prevents"}, {"measurement": "basal cAMP levels in cardiomyocytes", "setting": "[1]; higher concentration", "result": "increased"}, {"measurement": "isoproterenol or forskolin induced cAMP accumulation in TGF-β1 treated cardiomyocytes", "setting": "[1]; pre-incubation, Compound No. 79 200 nM", "result": "preserved"}, {"measurement": "effect on TGF-β1 induced Smad2/3 and Smad4 translocation into the nucleus", "setting": "Smad2/3 and Smad4; 400 nM", "result": "completely abolished"}, {"measurement": "effect on TGFβ1-induced Smad2 phosphorylation and Smad3 down-regulation in hBSMC", "setting": "Smad2, Smad3; FIG. 13", "result": "blocks"}]}, {"molecule": "N#CC(=C(/N)Sc1ccccc1N)/C(C#N)=C(\\N)Sc1ccccc1N", "note": "[U0126, reference compound]", "values": [{"measurement": "β2-AR mediated (procaterol stimulated) cAMP accumulation after 24 hr TGF-β1 exposure, compared to vehicle", "setting": "[1]; Compound No. 79 200 nM, p38 inhibitor 0.5 μM, U-0126 5 μM, JNK inhibitor I 5 μM, TGF-β1 1 ng/ml", "result": "No significant effects; also recorded: did not affect"}]}, {"molecule": "Cn1cc(C(F)(F)F)nc1-c1ccc(OCC(O)CNCCOc2ccc(O)c(C(N)=O)c2)cc1", "note": "(centres unmarked) [CGP-20712A, reference compound]", "values": [{"measurement": "attenuation of isoproterenol-stimulated cAMP accumulation", "setting": "[1]", "result": "~75", "unit": "%"}]}, {"molecule": "B1", "values": [{"measurement": "βAR response and AC activity in hBSMC", "setting": "[2]; higher concentration", "result": "causes loss of βAR response as well as reduced AC activity"}, {"measurement": "β2-AR mRNA levels in cardiomyocytes", "setting": "[4]", "result": "down-regulated"}, {"measurement": "β2AR response/AC activity (procaterol, forskolin)", "setting": "[1]", "result": "induces loss"}]}, {"molecule": "B2", "values": [{"measurement": "β2AR response/AC activity (procaterol, forskolin)", "setting": "[1]", "result": "induces loss"}]}]}
